Measurements reported in ChEMBL document CHEMBL5260832, “Hepatoprotective natural triterpenoids” (Eur J Med Chem, 2018).

How the values were obtained:
[1] = test system: Hepatocyte; assay: Hepatoprotective activity against D-GaIN/TNFalpha-induced cell death in mouse hepatocytes at 50 uM assessed as inhibition of cell death relative to control; type: functional; parameters: scale not given: the % may be the effect or the level left
[2] = test system: Hepatocyte; assay: Hepatoprotective activity against D-GaIN/TNFalpha-induced cell death in mouse hepatocyte at 100 uM; type: functional, cell-based
[3] = species: Mus musculus; assay: Hepatoprotective activity against D-GaIN-induced liver injury mouse model assessed as cell death with increasing cell survival rates at 10 uM relative to control; type: functional
[4] = Hepatotoxicity in rat assessed as reduction in GPT level at 0.01 mg/mL measured after 48 hrs (reference value: 291 IU/L); type: toxicity; conditions: in vivo
[5] = test system: Mus musculus; assay: Hepatoprotective activity against D-GaIN/CCl4 induced liver injury mouse model assessed as reduction in GPT level at 1.0 microg/ml, iv relative to control; type: functional; parameters: scale not given: the % may be the effect or the level left; conditions: dose 1 µg/ml
[6] = test system: HepG2; assay: Cytoprotective activity against t-BHP induced cell death in human HepG2 cells assessed as cell survival rate at 10 uM relative to control; type: functional
[7] = Hepatoprotective activity against D-GaIN - induced toxicity in rat WB-F344 cells assessed as inhibition of cell growth relative to control; type: functional; parameters: scale not given: the % may be the effect or the level left
[8] = Hepatoprotective activity against D-Galactosamine-induced toxicity in rat WB-F344 cells assessed as cell survival rate at 10 uM relative to control; type: functional
[9] = test system: L02; assay: Protection against D-GalN-induced cell damage in human L02 cells […] assessed as reduction in cell viability […]; type: functional, cell-based
[10] = test system: L02; assay: Protection against D-GalN-induced toxicity in L02 cells […] assessed as reduction in cell growth relative to control; type: functional, Homo sapiens; parameters: scale not given: the % may be the effect or the level left
[11] = test system: L02; assay: Protection against D-GalN-induced toxicity in L02 cells […] assessed as reduction in cell growth at 6.25 microg/ml relative to control; type: functional, Homo sapiens; parameters: scale not given: the % may be the effect or the level left; conditions: dose 6.25 µg/ml
[12] = test system: Huh-7; assay: Hepatoprotective activity against CCL4-induced mouse model in human Huh-7 cells assessed as decrease in ALT level at 100 ug/mL; type: functional; conditions: dose 100 µg/ml
[13] = test system: Mus musculus; assay: Hepatoprotective activity in mouse model of D-GaIN/LPS-induced liver injury assessed as inhibition of sALT level secretion at 100 mg/kg, po relative to control; type: functional
[14] = test system: Hepatocyte; assay: Hepatoprotective activity against D-GaIN-induced toxicity in mouse hepatocyte relative to control; type: functional, cell-based
[15] = test system: Mus musculus; assay: Hepatoprotective activity in mouse model of D-GaIN/LPS-induced liver injury assessed as inhibition of sAST secretion at 100 mg/kg, po relative to control; type: functional
[16] = test system: Mus musculus; assay: Hepatoprotective activity against CCl4-induced liver injury mouse model assessed as reduction in ALT at 20 ug/mL, ip relative to control (reference value: 13.23 IU/L); type: functional; conditions: dose 20 µg/ml
[17] = test system: Mus musculus; assay: Hepatoprotective activity against CCl4-induced liver injury mouse model assessed as reduction in MDA level at 20 ug/mL, ip relative to control (reference value: 9.27 IU/L); type: functional; conditions: dose 20 µg/ml
[18] = test system: Mus musculus; assay: Hepatoprotective activity against CCl4-induced liver injury mouse model assessed as increase in SOD level at 20 ug/mL, ip relative to control (reference value: 5.89 IU/L); type: functional; conditions: dose 20 µg/ml
[19] = test system: Mus musculus; assay: Hepatoprotective activity against CCl4-induced liver injury mouse model assessed as reduction in AST at 20 ug/mL, ip relative to control (reference value: 9.27 IU/L); type: functional; conditions: dose 20 µg/ml
[20] = test system: Rattus norvegicus; assay: Hepatoprotective activity in GaIN-induced rat model of liver injury assessed as reduction in ALT level at 4 mg/kg relative to control; type: functional; parameters: scale not given: the % may be the effect or the level left

Work on CC1=C2C3=CC[C@@H]4[C@@]5(C)C[C@@H](O)[C@H](O)[C@@](C)(CO)[C@@H]5[C@H](O)C[C@@]4(C)[C@]3(C)CC[C@@]2(C(=O)O[C@@H]2O[C@H](CO)[C@@H](O)[C@H](O)[C@H]2O)CC[C@H]1C [QUADRANOSIDE V] yielded an Activity [1] of 67.5% and an IC50 [2] of 30.2 µM.
With CC1=CC[C@H]([C@@H](C)[C@H]2CC[C@@]3(C)[C@@H]4CC[C@@H](C(C)(C)O)[C@@]5(CCC(=O)O)C[C@@]45CC[C@@]23C)OC1=O the Activity [3] was 35.7%.
For C[C@@]1(CO)CC[C@]2(C(=O)O[C@@H]3O[C@H](CO[C@@H]4O[C@H](CO)[C@@H](O)[C@H](O)[C@H]4O)[C@@H](O)[C@H](O[C@@H]4O[C@H](CO)[C@@H](O)[C@H](O)[C@H]4O)[C@H]3O)CC[C@]3(C)C(=CC[C@@H]4[C@@]5(C)CC[C@H](O[C@@H]6O[C@H](CO)[C@@H](O)[C@H](O)[C@H]6O)[C@@](C)(C(=O)O)[C@@H]5CC[C@]43C)[C@@H]2C1, the Activity [4] was 253 IU/L.
CO[C@@H]1C=C2[C@@H]3CC(C)(C)C(=O)C[C@]3(C(=O)O)CC[C@@]2(C)[C@]2(C)CCC3C(C)(C)C(=O)CC[C@]3(C)[C@@H]12 (some centres not stated) showed an Activity [5] of 48%.
In the case of CC(=O)C[C@@H](C)[C@H]1CC[C@@]2(C)[C@@H]3C(=O)C=C4[C@@H](CC[C@@H](O)C4(C)C)[C@]3(C)CC[C@]12C, the Activity [6] is reported as 56.9%.
Work on CC1(C)CC[C@]2(C(=O)O[C@@H]3O[C@H](CO)[C@@H](O)[C@H](O)[C@H]3O[C@@H]3OC[C@@H](O)[C@H](O)[C@H]3O)CC[C@]3(C)C(=CC[C@@H]4[C@@]5(C)C[C@@H](O)[C@@H](O)C(C)(C)[C@@H]5CC[C@]43C)[C@@H]2[C@@H]1O yielded an Activity [7] of 68% and an Activity [8] of 68%.
In the case of CC(=O)O[C@H]1[C@@H]2O[C@@]3(C(C)(C)O)CC[C@](C)(O3)C2[C@@]2(CO)CC[C@@]34C[C@@]35CC[C@H](O)C(C)(C)C5CC[C@H]4[C@]12C (some centres not stated), the EC50 [9] is reported as 55.9 µM.
Compound CC(C)[C@]1(CO[C@@H]2O[C@H](CO)[C@@H](O)[C@H](O)[C@H]2O)CC[C@@H]([C@H]2[C@H](O)C[C@]3(C)[C@@H]2CC[C@@H]2[C@@]4(C)CC[C@H](O[C@@H]5O[C@H](CO)[C@@H](O)[C@H](O)[C@H]5O[C@@H]5O[C@H](CO)[C@@H](O)[C@H](O)[C@H]5O)C(C)(C)[C@@H]4CC[C@]23C)O1 has an Activity [10] of 28.2% and an Activity [11] of 14.7%.
With CC1(C)CC[C@]2(CO)CC[C@]3(C)C(=CC[C@@H]4[C@@]5(C)CC[C@H](O)C(C)(C)[C@@H]5CC[C@]43C)[C@@H]2C1 [ERYTHRODIOL] the Activity [12] was 40.2 U/ml.
C[C@@H]1CC[C@]2(C(=O)O[C@@H]3O[C@H](CO)[C@@H](O)[C@H](O)[C@H]3O)CC[C@]3(C)C(=CC[C@@H]4[C@@]5(C)C[C@@H](O)[C@@H](O)C(C)(C)[C@@H]5CC[C@]43C)[C@@H]2[C@]1(C)O showed an inhibition in vivo at 100 mg/kg [13] of 57.2%, an IC50 [14] of 14.1 µM and an inhibition in vivo at 100 mg/kg [15] of 59.7%.
For C[C@@H]1CC[C@]2(C(=O)O)CC[C@]3(C)C(=CC[C@@H]4[C@@]5(C)[C@H](O)[C@@H](O)[C@@H](O)C(C)(C)[C@@H]5CC[C@]43C)[C@@H]2[C@]1(C)O, the Activity [16] was 4.75 IU/L, the Activity [17] was 3.84 nmol/mL and the Activity [18] was 21.9 U/ml. For the same compound, the Activity [19] was 4.24 IU/L.
For CC1(C)CC[C@]2(C(=O)O[C@@H]3O[C@H](CO)[C@@H](O)[C@H](O)[C@H]3O)CC[C@]3(C)C(=CC[C@@H]4[C@@]5(C)C[C@@H](O)[C@@H](O)[C@](C)(CO)[C@@H]5CC[C@]43C)[C@@H]2[C@@H]1O, the Activity [7] was 61% and the Activity [8] was 61%.
Work on COC(=O)[C@]12CC[C@@H](C)[C@H](C)[C@H]1C1=CC[C@@H]3[C@@]4(C)C[C@@H](OC)C(=O)[C@@](C)(C=O)[C@@H]4CC[C@@]3(C)[C@]1(C)CC2 yielded an Activity [20] of 52.3%.
